Measured values from patent US11339130B1 (Blade Therapeutics, Inc., priority 2016, dated 2022).

What was measured:
[1] = test system: Calpain activity in SH-SY5Y cells (SBDP-150); assay: SH-SY5Y Spectrin western blot assay (SBDP-150 breakdown product, A23187-induced); type: cell-based; conditions: Homo sapiens; SH-SY5Y cells, A23187-induced SBDP-150, western blot; read-out: SH-SY5Y Spectrin IC50
[2] = target: T1, Human Calpain 9/NS1 (Homo sapiens, UniProt O14815); assay: Calpain inhibition continuous fluorescence (FRET) assay, Human Calpain 9/NS1; type: biochemical; conditions: read-out: Human Calpain 9/NS1 IC50
T1 sequence (O14815 1-690): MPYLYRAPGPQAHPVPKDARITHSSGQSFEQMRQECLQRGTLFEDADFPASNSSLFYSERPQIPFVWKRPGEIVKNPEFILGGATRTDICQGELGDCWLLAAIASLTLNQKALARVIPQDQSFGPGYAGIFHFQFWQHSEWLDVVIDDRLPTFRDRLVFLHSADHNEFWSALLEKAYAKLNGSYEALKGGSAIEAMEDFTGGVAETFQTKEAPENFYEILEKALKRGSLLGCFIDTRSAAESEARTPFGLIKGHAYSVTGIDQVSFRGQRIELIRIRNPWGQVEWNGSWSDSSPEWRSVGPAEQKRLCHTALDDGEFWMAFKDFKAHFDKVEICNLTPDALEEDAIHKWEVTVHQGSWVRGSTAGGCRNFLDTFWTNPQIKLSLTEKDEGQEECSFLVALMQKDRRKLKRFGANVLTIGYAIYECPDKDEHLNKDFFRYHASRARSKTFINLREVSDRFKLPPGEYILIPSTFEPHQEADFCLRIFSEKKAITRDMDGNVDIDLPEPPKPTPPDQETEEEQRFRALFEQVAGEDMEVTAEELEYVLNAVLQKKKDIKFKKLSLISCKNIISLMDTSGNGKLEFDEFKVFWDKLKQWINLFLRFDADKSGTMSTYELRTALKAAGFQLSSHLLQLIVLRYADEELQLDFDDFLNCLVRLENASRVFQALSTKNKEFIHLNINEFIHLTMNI
T1 sequence (P04632 1-268 partner): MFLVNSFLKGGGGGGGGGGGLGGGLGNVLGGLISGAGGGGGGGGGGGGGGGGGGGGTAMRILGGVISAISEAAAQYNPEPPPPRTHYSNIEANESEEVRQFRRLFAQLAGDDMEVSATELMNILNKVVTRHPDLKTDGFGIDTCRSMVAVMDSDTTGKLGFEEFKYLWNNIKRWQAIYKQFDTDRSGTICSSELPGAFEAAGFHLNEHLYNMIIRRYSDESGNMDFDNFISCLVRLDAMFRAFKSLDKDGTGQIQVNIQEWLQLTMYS
Procedure, shortened: (§1)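 Buffer 50 mM Tris pH 7.5/100 mM NaCl/1 mM DTT; enzyme + cpd preinc 25C; start w/ FRET substrate + CaCl2; kinetic 490/520 nm, 10 min; slopes 1-5 min; 4-PL IC50.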

[3] = target: T2, Human Calpain 2/NS1 (Homo sapiens, UniProt P17655); assay: Calpain inhibition continuous fluorescence (FRET) assay, Human Calpain 2/NS1; type: biochemical; conditions: read-out: Human Calpain 2/NS1 IC50
T2 sequence (P17655 1-700): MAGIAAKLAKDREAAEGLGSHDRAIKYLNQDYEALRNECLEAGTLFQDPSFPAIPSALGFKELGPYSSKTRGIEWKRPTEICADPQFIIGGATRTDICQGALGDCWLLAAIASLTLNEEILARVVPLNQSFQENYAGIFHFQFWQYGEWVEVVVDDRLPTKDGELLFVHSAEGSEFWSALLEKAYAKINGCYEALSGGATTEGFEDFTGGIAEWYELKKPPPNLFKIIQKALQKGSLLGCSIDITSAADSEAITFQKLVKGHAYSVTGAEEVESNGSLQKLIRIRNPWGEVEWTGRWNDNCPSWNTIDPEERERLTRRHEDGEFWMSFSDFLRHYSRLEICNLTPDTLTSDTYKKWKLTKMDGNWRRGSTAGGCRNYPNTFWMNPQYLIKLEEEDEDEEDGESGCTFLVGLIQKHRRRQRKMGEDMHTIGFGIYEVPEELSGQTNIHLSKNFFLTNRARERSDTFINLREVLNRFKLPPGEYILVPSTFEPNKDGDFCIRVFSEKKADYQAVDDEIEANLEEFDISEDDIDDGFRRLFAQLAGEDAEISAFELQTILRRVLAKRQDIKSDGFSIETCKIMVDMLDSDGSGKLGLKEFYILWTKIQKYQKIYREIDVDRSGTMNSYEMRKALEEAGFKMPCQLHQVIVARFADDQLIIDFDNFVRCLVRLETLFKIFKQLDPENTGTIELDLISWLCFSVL
T2 sequence (P04632 1-268 partner): T1 sequence (P04632 1-268 partner)
Procedure, shortened: as §1

[4] = test system: Calpain activity in SH-SY5Y cells; assay: SH-SY5Y + AMC fluorescence assay (Suc-LLVY-AMC substrate); type: cell-based; conditions: read-out: SH-SY5Y + AMC IC50
[5] = target: T3, Human Calpain 1/NS1 (Homo sapiens, UniProt P07384); assay: Calpain inhibition continuous fluorescence (FRET) assay, Human Calpain 1/NS1; type: biochemical; conditions: read-out: Human Calpain 1/NS1 IC50
T3 sequence (P07384 1-714): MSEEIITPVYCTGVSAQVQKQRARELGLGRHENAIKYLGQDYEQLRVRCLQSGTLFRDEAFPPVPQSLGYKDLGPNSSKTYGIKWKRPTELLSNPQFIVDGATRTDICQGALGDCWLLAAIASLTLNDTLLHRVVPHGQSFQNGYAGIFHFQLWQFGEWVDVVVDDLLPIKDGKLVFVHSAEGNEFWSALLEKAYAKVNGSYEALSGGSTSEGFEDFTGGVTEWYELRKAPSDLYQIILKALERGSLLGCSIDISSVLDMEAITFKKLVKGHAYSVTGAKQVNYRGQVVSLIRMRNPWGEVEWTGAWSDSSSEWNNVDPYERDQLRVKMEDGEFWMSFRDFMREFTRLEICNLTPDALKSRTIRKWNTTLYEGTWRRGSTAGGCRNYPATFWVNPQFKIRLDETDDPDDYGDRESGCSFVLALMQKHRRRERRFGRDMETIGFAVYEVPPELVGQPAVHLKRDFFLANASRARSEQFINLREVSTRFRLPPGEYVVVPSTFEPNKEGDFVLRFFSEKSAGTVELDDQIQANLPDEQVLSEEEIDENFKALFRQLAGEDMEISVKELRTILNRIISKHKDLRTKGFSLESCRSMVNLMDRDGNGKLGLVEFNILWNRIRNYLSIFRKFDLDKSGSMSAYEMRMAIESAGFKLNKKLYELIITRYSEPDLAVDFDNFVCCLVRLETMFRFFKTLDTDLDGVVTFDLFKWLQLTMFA
T3 sequence (P04632 1-268 partner): T1 sequence (P04632 1-268 partner)
Procedure, shortened: as §1

Cn1cc(C(=O)N[C@@H](CC(C)(C)C)C(=O)C(N)=O)c(-c2ccccc2)n1 [Compound 416, (S)—N-(1-amino-5,5-dimethyl-1,2-dioxohexan-3-yl)-1-methyl-3-phenyl-1H-pyrazole-4-carboxamide] gave an IC50 [1] greater than 25 µM, an IC50 [2] of less than 3 µM and an IC50 [3] of less than 3 µM. For the same compound, the IC50 [4] was greater than 25 µM and the IC50 [5] was less than 3 µM.

Compound Cn1cc(C(=O)NC(CCc2ccccc2)C(=O)C(N)=O)c(-c2ccccc2)n1 (stereo not shown) [Compound 417, N-(1-amino-1,2-dioxo-5-phenylpentan-3-yl)-1-methyl-3-phenyl-1H-pyrazole-4-carboxamide] has an IC50 [1] greater than 25 µM, an IC50 [2] of less than 3 µM and an IC50 [3] of less than 3 µM. It also gave an IC50 [4] greater than 25 µM and an IC50 [5] of less than 3 µM.

Compound Cn1cc(C(=O)NC(Cc2cc(Cl)cc(Cl)c2)C(=O)C(N)=O)c(-c2ccccc2)n1 (stereo not shown) [Compound 418, N-(4-amino-1-(3,5-dichlorophenyl)-3,4-dioxobutan-2-yl)-1-methyl-3-phenyl-1H-pyrazole-4-carboxamide] has an IC50 [1] of 10 to 25 µM, an IC50 [2] of less than 3 µM and an IC50 [3] of less than 3 µM. The IC50 [4] was 10 to 25 µM and the IC50 [5] was less than 3 µM.

CCCC[C@H](NC(=O)c1cn(C)nc1-c1ccccc1)C(=O)C(N)=O [Compound 419, (S)—N-(1-amino-1,2-dioxoheptan-3-yl)-1-methyl-3-phenyl-1H-pyrazole-4-carboxamide] was tested, and the IC50 [1] was 10 to 25 µM, the IC50 [2] was less than 3 µM and the IC50 [3] was less than 3 µM. For the same compound, the IC50 [4] was greater than 25 µM and the IC50 [5] was less than 3 µM.

Compound COc1ccc(C[C@H](NC(=O)c2cn(C)nc2-c2ccccc2)C(=O)C(N)=O)cc1 [Compound 420, (S)—N-(4-amino-1-(4-methoxyphenyl)-3,4-dioxobutan-2-yl)-1-methyl-3-phenyl-1H-pyrazole-4-carboxamide] has an IC50 [1] of less than 10 µM, an IC50 [2] of less than 3 µM and an IC50 [3] of less than 3 µM. The IC50 [4] was greater than 25 µM and the IC50 [5] was less than 3 µM.

Work on Cn1cc(C(=O)N[C@@H](Cc2ccc(O)cc2)C(=O)C(N)=O)c(-c2ccccc2)n1 [Compound 421, (S)—N-(4-amino-1-(4-hydroxyphenyl)-3,4-dioxobutan-2-yl)-1-methyl-3-phenyl-1H-pyrazole-4-carboxamide] yielded an IC50 [1] of 10 to 25 µM, an IC50 [2] of less than 3 µM and an IC50 [3] of less than 3 µM. It also gave an IC50 [4] of less than 10 µM and an IC50 [5] of less than 3 µM.

For Cn1cc(C(=O)NC(CCC(F)(F)F)C(=O)C(N)=O)c(-c2ccccc2)n1 (stereo not shown) [Compound 422, N-(1-amino-6,6,6-trifluoro-1,2-dioxohexan-3-yl)-1-methyl-3-phenyl-1H-pyrazole-4-carboxamide], the IC50 [1] was greater than 25 µM, the IC50 [2] was 3 to 10 µM and the IC50 [3] was 3 to 10 µM. It also gave an IC50 [4] greater than 25 µM and an IC50 [5] greater than 10 µM.

Cn1cc(C(=O)N[C@@H](Cc2c[nH]c3ccccc23)C(=O)C(N)=O)c(-c2ccccc2)n1 [Compound 423, (S)—N-(4-amino-1-(1H-indol-3-yl)-3,4-dioxobutan-2-yl)-1-methyl-3-phenyl-1H-pyrazole-4-carboxamide] gave an IC50 [1] of less than 10 µM, an IC50 [2] of less than 3 µM and an IC50 [3] of less than 3 µM. The IC50 [4] was less than 10 µM and the IC50 [5] was less than 3 µM.
